IC50 data for two compounds are collected here from BindingDB's records for doi:10.1021/ml300128f (The Scripps Research Institute, 2012).

This experiment has as its target Elastase (Pseudomonas aeruginosa (strain ATCC 15692 / DSM 22644 / CIP 104116 / JCM 14847 / LMG 12228 / 1C / PRS 101 / PAO1), UniProt P14756). Kind of experiment: Antagonist activity at Pseudomonas aeruginosa LasB using Abz-Ala-Gly-Leu-Ala-p-Nitro-Benzyl-Amide as substrate incubated for 30 mins prior to substrate addition by FRET assay.

Structures are written as SMILES.

Elastase, sequence (P14756 whole entry): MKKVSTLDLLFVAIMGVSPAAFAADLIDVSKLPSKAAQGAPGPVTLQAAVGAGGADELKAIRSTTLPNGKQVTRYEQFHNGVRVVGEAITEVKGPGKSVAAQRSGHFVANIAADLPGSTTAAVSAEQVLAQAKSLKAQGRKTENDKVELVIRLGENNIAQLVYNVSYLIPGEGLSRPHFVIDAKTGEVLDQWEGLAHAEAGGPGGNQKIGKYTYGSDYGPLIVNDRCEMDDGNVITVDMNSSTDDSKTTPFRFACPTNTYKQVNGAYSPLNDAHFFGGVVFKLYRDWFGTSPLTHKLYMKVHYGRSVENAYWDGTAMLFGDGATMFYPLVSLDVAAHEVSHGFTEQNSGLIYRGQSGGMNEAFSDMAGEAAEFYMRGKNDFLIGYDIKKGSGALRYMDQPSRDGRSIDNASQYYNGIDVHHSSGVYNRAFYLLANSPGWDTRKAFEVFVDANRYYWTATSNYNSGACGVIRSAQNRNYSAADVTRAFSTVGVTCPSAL

In general, IC50 refers to the concentration needed to halve the response being measured. The low end stands for higher potency, the high end for lower potency. `Cc1c(O)c(=S)ccn1C` had an IC50 of 80.6 µM.

Compound `CCc1c(O)c(=S)ccn1CC` showed an IC50 of 392 µM.
